Test results taken from ChEMBL document CHEMBL5154925, “Design and Optimization of Thienopyrimidine Derivatives as Potent and Selective PI3Kδ Inhibitors for the Treatment of B-Cell Malignancies” (J Med Chem, 2022).
Calls of active or inactive are those of the source. The rule behind the calls is not given here.

How the values were obtained:
Mus musculus [1] = assay: In vivo inhibition of PI3K signalling in human Pfeiffer cells xenografted in nude mouse assessed as reduction in Akt phosphorylation at Ser473 at 5 mg/kg, ip by Western blotting analysis; assay type: functional, organism-based
Pfeiffer [2] = assay: Induction of apoptosis in human Pfeiffer cells assessed as necrotic cells at 10 uM incubated for 48 hrs by annexin V-FITC staining based flow cytometry (reference value: 6.62 %); assay type: functional
[3] = molecular target: T1, Phosphatidylinositol 4,5-bisphosphate 3-kinase catalytic subunit delta isoform (Homo sapiens, UniProt O00329); assay: Inhibition of PI3Kdelta in IgM stimulated human Raji cells incubated for 10 mins by AlphaLISA assay; assay type: cell-based
T1 sequence (O00329 whole entry): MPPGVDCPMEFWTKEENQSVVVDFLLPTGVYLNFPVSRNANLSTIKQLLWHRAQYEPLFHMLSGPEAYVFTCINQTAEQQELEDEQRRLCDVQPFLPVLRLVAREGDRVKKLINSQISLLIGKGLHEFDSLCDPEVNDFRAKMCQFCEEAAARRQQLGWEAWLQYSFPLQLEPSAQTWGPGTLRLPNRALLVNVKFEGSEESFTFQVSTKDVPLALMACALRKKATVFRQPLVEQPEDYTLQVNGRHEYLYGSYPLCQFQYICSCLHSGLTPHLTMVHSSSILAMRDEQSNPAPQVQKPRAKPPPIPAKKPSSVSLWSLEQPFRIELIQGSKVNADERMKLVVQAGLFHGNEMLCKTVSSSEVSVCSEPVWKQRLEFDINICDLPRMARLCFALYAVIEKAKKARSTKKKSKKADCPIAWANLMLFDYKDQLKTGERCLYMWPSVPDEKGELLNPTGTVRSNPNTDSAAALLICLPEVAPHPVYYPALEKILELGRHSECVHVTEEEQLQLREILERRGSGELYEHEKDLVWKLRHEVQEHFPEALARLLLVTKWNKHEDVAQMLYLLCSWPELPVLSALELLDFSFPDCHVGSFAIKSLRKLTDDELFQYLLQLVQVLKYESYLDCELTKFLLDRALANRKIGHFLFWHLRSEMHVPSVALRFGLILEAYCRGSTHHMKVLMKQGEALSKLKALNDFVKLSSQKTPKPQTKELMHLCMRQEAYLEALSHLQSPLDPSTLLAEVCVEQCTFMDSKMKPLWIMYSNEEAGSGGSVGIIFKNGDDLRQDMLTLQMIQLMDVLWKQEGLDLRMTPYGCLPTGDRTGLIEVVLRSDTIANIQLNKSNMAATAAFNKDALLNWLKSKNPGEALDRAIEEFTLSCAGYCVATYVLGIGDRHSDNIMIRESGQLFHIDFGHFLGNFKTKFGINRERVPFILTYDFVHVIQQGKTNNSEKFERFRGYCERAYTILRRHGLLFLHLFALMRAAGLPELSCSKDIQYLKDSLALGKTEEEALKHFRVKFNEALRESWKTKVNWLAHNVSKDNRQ

Pfeiffer [4] = assay: Induction of apoptosis in human Pfeiffer cells assessed as late apoptotic cells at 2 uM incubated for 48 hrs by annexin V-FITC staining based flow cytometry (reference value: 7.87 %); assay type: functional
Z-138 = assay: Antiproliferative activity against human Z138 cells assessed as cell growth inhibition incubated for 96 hrs by cell titer glo assay; assay type: functional, cell-based; settings: Z-138, 96 h
SU-DHL-6 [5] = assay: Induction of apoptosis in human SU-DHL-6 cells assessed as apoptotic rate incubated for 48 hrs by annexin V-FITC staining based flow cytometry; assay type: functional, cell-based; settings: dose 2-50 µM, DDE = dose-dependent effect
[6] = Microsomal stability in mouse liver microsomes assessed as half life; assay type: ADME, Microsome
[7] = Half life in ICR mouse at 30 mg/kg, po measured upto 24 hrs by LC-MS/MS analysis; assay type: ADME, organism-based; settings: in vivo
[8] = Clearance in ICR mouse at 3 mg/kg, iv measured upto 24 hrs by LC-MS/MS analysis; assay type: ADME, organism-based; settings: in vivo
[9] = Microsomal stability in mouse liver microsomes assessed as intrinsic clearance; assay type: ADME, Microsome; settings: read-out: CLH
[10] = AUC (0 to infinity) in ICR mouse at 30 mg/kg, po measured upto 24 hrs by LC-MS/MS analysis; assay type: ADME, organism-based; set-up: dose 30 mg/kg, time < 24 hrs, route po; settings: in vivo
Pfeiffer [11] = assay: Induction of apoptosis in human Pfeiffer cells assessed as late apoptotic cells at 10 uM incubated for 48 hrs by annexin V-FITC staining based flow cytometry (reference value: 7.87 %); assay type: functional
Pfeiffer [12] = assay: Antitumor activity against human Pfeiffer cells xenografted in nude mouse assessed as tumor growth inhibition at 75 mg/kg, po BID for 21 days and measured twice weekly; assay type: functional; settings: 504 h, time 21 day, read-out: TGI
[13] = Plasma protein binding in mouse; assay type: ADME, cell-free; settings: read-out: PPB (converted)
[14] = molecular target: T2, Phosphatidylinositol 4,5-bisphosphate 3-kinase catalytic subunit beta isoform (Homo sapiens, UniProt P42338); assay: Inhibition of PI3Kbeta in LPA stimulated human PC-3 cells incubated for 10 mins by AlphaLISA assay; assay type: cell-based
[15] = molecular target: Phosphatidylinositol 4,5-bisphosphate 3-kinase catalytic subunit gamma isoform (Homo sapiens, UniProt P48736); assay: Inhibition of wild type partial length human PIK3CG (S144 to A1102 residues) expressed in mammalian cells assessed as residual activity at 10 uM relative to control; assay type: cell-based
SU-DHL-6 [16] = assay: Induction of apoptosis in human SU-DHL-6 cells assessed as apoptotic rate at 50 uM incubated for 48 hrs by annexin V-FITC staining based flow cytometry; assay type: functional
[17] = AUC (0 to infinity) in ICR mouse at 3 mg/kg, iv measured upto 24 hrs by LC-MS/MS analysis; assay type: ADME, organism-based; set-up: time < 24 hrs, dose 3 mg/kg, route iv; settings: in vivo
Pfeiffer [18] = assay: Induction of apoptosis in human Pfeiffer cells assessed as early apoptotic cells at 10 uM incubated for 48 hrs by annexin V-FITC staining based flow cytometry (reference value: 4.16 %); assay type: functional
[19] = Half life in ICR mouse at 3 mg/kg, iv measured upto 24 hrs by LC-MS/MS analysis; assay type: ADME, organism-based; settings: in vivo
Pfeiffer [20] = assay: Induction of apoptosis in human Pfeiffer cells assessed as early apoptotic cells at 50 uM incubated for 48 hrs by annexin V-FITC staining based flow cytometry (reference value: 4.16 %); assay type: functional
Mus musculus [21] = assay: In vivo inhibition of PI3K signalling in human Pfeiffer cells xenografted in nude mouse assessed as reduction in Akt phosphorylation at Ser473 at 75 mg/kg, po by Western blotting analysis; assay type: functional, organism-based
[22] = molecular target: Phosphatidylinositol 4,5-bisphosphate 3-kinase catalytic subunit alpha isoform (Mus musculus, UniProt P42337); assay: Inhibition of PI3Kalpha in IGF-1 stimulated mouse C2C12 cells incubated for 10 mins by AlphaLISA assay; assay type: cell-based
[23] = molecular target: T2, Phosphatidylinositol 4,5-bisphosphate 3-kinase catalytic subunit beta isoform; assay: Inhibition of PI3Kbeta (unknown origin) using PIP2 as substrate measured after 1 hr in presence of ATP by ADP-glo luminescence assay
[24] = molecular target: Ribosomal protein S6 kinase alpha-3 (Homo sapiens) (UniProt P51812); assay: Inhibition of wild type […] human RSK2 (M1 to D394 residues) expressed in mammalian expression system assessed as residual activity at 10 uM relative to control
Pfeiffer [25] = assay: Induction of apoptosis in human Pfeiffer cells assessed as necrotic cells at 50 uM incubated for 48 hrs by annexin V-FITC staining based flow cytometry (reference value: 6.62 %); assay type: functional

T2 sequence (P42338 whole entry, the tested form may be a part, canonical isoform): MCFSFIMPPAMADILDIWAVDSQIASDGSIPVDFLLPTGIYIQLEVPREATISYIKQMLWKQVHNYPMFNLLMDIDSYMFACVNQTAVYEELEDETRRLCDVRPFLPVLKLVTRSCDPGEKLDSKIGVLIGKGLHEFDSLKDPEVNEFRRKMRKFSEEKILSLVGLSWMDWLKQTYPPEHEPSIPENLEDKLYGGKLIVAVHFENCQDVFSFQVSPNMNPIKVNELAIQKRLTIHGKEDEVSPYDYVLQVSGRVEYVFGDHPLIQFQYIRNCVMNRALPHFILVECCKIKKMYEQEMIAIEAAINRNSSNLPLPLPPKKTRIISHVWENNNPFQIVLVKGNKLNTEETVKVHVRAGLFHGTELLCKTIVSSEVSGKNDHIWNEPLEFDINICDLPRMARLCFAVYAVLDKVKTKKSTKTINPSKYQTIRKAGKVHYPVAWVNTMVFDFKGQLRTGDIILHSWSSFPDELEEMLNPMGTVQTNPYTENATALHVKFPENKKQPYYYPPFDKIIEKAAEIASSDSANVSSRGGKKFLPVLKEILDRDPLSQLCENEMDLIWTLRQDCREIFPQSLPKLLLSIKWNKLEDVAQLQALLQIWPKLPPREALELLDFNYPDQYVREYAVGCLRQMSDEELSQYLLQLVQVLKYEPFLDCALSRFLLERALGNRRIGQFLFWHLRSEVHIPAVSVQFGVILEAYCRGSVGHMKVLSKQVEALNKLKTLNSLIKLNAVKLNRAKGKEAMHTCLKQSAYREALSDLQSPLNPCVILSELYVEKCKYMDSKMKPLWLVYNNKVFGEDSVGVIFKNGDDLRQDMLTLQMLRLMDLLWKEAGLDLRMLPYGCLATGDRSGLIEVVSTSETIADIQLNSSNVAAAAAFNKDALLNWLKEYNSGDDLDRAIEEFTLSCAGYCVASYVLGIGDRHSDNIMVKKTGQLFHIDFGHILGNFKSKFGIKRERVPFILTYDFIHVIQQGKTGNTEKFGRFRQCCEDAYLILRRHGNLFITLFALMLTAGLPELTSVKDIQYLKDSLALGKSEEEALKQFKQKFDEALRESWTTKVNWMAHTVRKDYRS
Chain of Ribosomal protein S6 kinase alpha-3 (Homo sapiens) (P51812 whole entry, the tested form may be a part): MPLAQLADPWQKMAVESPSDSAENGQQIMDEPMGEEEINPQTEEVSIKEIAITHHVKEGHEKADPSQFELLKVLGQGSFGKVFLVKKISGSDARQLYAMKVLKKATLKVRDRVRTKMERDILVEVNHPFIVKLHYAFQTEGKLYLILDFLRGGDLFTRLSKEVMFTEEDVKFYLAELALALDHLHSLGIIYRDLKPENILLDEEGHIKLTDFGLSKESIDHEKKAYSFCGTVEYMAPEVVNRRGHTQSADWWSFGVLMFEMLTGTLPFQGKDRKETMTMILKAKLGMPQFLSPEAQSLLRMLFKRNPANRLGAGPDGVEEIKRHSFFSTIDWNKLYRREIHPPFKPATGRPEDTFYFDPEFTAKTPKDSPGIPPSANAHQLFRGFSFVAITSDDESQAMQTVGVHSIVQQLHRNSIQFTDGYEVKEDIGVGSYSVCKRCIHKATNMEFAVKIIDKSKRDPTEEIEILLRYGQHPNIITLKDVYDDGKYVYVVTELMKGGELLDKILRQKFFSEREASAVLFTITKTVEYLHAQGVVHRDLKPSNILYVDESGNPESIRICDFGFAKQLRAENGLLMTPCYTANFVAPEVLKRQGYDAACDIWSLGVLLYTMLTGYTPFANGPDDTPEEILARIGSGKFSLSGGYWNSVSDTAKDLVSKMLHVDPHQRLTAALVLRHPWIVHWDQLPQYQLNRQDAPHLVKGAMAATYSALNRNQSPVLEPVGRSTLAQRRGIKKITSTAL
Chain of Phosphatidylinositol 4,5-bisphosphate 3-kinase catalytic subunit alpha isoform (P42337 whole entry, canonical isoform): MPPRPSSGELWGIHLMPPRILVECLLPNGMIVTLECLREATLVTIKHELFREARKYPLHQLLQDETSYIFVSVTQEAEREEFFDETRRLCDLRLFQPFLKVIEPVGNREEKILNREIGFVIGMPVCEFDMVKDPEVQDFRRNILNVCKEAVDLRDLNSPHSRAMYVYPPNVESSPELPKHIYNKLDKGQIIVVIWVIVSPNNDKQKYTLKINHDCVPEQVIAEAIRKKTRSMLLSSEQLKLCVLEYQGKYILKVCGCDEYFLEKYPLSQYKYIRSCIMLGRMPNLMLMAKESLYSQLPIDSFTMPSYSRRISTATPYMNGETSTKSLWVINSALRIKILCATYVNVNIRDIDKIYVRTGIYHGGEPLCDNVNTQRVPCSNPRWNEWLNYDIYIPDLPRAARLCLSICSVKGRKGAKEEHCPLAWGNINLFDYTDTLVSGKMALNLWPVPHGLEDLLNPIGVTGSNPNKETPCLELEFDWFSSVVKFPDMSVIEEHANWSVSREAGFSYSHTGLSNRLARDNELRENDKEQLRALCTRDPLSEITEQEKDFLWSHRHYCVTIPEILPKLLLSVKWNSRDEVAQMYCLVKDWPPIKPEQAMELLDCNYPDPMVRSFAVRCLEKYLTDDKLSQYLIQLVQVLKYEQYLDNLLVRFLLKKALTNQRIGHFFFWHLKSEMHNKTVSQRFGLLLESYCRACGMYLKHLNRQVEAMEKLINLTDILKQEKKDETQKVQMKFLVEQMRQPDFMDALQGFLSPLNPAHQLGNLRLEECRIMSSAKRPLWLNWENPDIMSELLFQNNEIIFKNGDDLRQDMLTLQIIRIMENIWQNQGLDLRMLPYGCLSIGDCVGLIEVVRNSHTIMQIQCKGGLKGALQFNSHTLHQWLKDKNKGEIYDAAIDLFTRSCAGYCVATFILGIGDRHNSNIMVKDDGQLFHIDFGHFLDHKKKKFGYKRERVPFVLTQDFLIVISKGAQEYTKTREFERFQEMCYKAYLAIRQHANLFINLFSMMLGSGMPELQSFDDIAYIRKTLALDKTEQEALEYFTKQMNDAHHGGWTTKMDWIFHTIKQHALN
Chain of Phosphatidylinositol 4,5-bisphosphate 3-kinase catalytic subunit gamma isoform (P48736 whole entry, looked up, the tested form may be a part, canonical isoform): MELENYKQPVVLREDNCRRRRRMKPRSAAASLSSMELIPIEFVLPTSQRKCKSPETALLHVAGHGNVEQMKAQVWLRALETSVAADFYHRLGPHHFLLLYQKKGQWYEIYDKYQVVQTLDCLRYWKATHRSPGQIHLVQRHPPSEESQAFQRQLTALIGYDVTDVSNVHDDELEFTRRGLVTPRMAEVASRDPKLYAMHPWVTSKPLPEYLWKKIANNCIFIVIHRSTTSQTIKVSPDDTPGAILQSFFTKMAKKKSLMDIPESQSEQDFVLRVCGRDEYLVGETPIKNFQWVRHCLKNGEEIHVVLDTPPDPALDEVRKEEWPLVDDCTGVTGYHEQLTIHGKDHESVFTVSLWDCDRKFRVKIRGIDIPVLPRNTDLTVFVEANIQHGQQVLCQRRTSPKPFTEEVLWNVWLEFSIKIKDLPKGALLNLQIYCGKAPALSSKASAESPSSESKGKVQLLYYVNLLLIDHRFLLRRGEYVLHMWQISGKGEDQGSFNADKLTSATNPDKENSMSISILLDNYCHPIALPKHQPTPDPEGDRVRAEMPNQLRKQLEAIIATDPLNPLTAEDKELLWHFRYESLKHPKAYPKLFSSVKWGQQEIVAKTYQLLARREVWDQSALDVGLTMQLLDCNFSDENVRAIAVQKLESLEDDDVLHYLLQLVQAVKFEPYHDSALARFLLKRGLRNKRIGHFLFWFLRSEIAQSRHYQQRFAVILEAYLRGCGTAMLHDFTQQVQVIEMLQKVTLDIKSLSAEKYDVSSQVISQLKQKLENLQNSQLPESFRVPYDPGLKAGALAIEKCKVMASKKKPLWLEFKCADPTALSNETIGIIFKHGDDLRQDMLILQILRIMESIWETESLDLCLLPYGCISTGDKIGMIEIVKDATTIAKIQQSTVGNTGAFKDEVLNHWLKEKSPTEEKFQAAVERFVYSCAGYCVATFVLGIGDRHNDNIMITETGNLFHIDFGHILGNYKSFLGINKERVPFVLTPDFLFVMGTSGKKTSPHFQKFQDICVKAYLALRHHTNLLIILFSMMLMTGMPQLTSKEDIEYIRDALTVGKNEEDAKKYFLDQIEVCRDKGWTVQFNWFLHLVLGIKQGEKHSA

For `CCC(=O)N1CC[C@H](Nc2ncnc3sc(-c4cnc(OC)c(OC)c4)cc23)C1`, which inhibition (Mus musculus [1]) is on record?
The inhibition was “Active”.

And the Activity (Pfeiffer [2])?
Its Activity is 6.72%.

And the IC50 [3]?
The IC50 was 0.137 µM.

And the Activity (Pfeiffer [4])?
Its Activity is 12.63%.

What about the IC50 (Z-138) of the same compound?
Its IC50 is 7.05 µM.

What about the Activity (SU-DHL-6 [5]) of the same compound?
The Activity was “Dde”.

What about the half-life [6] of the same compound?
The half-life was 1.51 h.

And the half-life [7]?
Its half-life is 0.89 h.

And the clearance [8]?
The clearance was 36.5 mL/min/kg.

What about the CLint scaled [9] of the same compound?
Its CLint scaled is 60.3 mL/min/kg.

And the AUC(0-inf) [10]?
The AUC(0-inf) was 1030 ng·h/mL.

And the Activity (Pfeiffer [11])?
Its Activity is 22.9%.

And the inhibition in vivo at 75 mg/kg (Pfeiffer [12])?
The inhibition in vivo at 75 mg/kg was 65.5%.

What about the fraction unbound [13] of the same compound?
The fraction unbound was 0.029.

And the IC50 [14]?
Its IC50 is 5.12 µM.

What about the Activity [15] of the same compound?
The Activity was 9.9%.

What about the Activity (SU-DHL-6 [16]) of the same compound?
The Activity was >50%.

What about the AUC(0-inf) [17] of the same compound?
The AUC(0-inf) was 1370 ng·h/mL.

And the Activity (Pfeiffer [18])?
Its Activity is 6.98%.

And the half-life [19]?
Its half-life is 1.73 h.

And the Activity (Pfeiffer [20])?
The Activity was 15.74%.

And the inhibition (Mus musculus [21])?
Its inhibition is “Active”.

What about the IC50 [22] of the same compound?
The IC50 was 50.2 µM.

And the IC50 [23]?
The IC50 was 0.972 µM.

And the Activity [24]?
The Activity was 23%.

What about the Activity (Pfeiffer [25]) of the same compound?
The Activity was 7.18%.
